Test system: normal human dermal fibroblasts (NHDF)
Test: type I procollagen ELISA assay on culture medium of fibroblasts after 72 hours incubation
Type: cell-based
Conditions: for Procollagen 1 / %/blank: NHDF, 72 hours; for Procollagen 1: DMEM containing 10% FCS, ELISA on culture medium; for %/blank: procollagen 1 relative to blank, DMEM 10% FCS
Description: The efficacy of a combination in accordance with the invention is tested by assaying the procollagen 1. To do this, a composition in accordance with the invention is placed in contact with normal human dermal fibroblasts and the whole is left to incubate for 72 hours before assaying.
The C-glycoside derivative used is C-β-D-xylopyranoside-2-hydroxypropane sold under the name Mexoryl® from Chimex. It is in the form of a solution containing 30% by weight of active material in a 60/40 water/1,2-propanediol mixture.
• Normal human dermal fibroblasts (NHDF) (R8PF2), obtained from a mammary plasty • Type: pool PF2, used at the 8th passage • Culture: 37° C., 5% CO2 • Test culture medium: DMEM (Invitrogen 21969035) • L-glutamine 2 mM (Invitrogen 25030024) • Penicillin 50 IU/ml streptomycin 50 μg/ml (Invitrogen 15070063) • 10% Foetal calf serum (v/v, Invitrogen 10270098).
The normal human dermal fibroblasts (R8PF2) are inoculated in whole DMEM medium and preincubated for 24 hours at 37° C. and 5% CO2. At 80% confluence, the culture medium is replaced with DMEM test medium containing 10% FCS with or without (blank) the products or mixtures to be tested or the reference (TGF-β). The cells are then incubated at 37° C. for 72 hours. Each experimental condition was performed in triplicate.
After incubation, the culture media are harvested and the type I procollagen assay is performed on a sample of medium using a specific ELISA assay kit and according to the supplier's instructions (Procollagen Type I C-Peptide EIA Kit, Bio-Whittaker MK101). An MTT viability test is performed on the cell lawns.

Row | SMILES | Procollagen 1 (1 mM) [ng/mL] | %/blank (1 mM) [%] | amount of procollagen 1 synthesized by the fibroblasts (in words) (tested at 1 mm, culturing for 72 hours in DMEM medium containing 10% FCS) | Procollagen 1 (0.01 mg/ml) [ng/mL] | %/blank (0.01 mg/ml) [%] | synthesis of procollagen 1 by the fibroblasts (in words) (tested at 0.01 mg/ml, culturing for 72 hours in DMEM medium containing 10% FCS)
1 | CC(O)C[C@@H]1OC[C@@H](O)[C@H](O)[C@H]1O (stereo partly drawn) [C-Glycoside derivative, C-β-D-xylopyranoside-2-hydroxypropane] | 1838 | 96 | does not significantly modify | – | – | –
2 | O=C1O[C@H]([C@@H](O)CO)C(O)=C1O [Ascorbic acid, ascorbic acid] | – | – | – | 17052 | 887 | significantly increases

From patent US20090274638A1, “COSMETIC USE OF A C-GLYCOSIDE DERIVATIVE IN COMBINATION WITH ASCORBIC ACID” (L'OREAL, priority 2006, published 2009)
